Reference: patent US5472959A, “Carboxyalkyl derivatives useful as inhibitors of enkephalinase and ace” (Merrell Dow Pharmaceuticals Inc., priority 1994, dated 1995)

Legend:
[1] = Needleman, Hypertension 7, 469 (1985), cited from earlier work
[2] = target: T1, Enkephalinase (Rattus norvegicus, UniProt P07861); assay: Enkephalinase inhibition, fluorometric assay with dansyl-D-AlaGly(p-nitro)PheGly; format: biochemical; settings: substrate of enkephalinase, 50 mM HEPES pH 7.4, 25° C.
T1 construct: Enkephalinase is partially purified from rat kidney; from tissue; host or cells: rat kidney (microvilli fraction), further purified by Mono Q anion exchange
T1 sequence (P07861 1-750): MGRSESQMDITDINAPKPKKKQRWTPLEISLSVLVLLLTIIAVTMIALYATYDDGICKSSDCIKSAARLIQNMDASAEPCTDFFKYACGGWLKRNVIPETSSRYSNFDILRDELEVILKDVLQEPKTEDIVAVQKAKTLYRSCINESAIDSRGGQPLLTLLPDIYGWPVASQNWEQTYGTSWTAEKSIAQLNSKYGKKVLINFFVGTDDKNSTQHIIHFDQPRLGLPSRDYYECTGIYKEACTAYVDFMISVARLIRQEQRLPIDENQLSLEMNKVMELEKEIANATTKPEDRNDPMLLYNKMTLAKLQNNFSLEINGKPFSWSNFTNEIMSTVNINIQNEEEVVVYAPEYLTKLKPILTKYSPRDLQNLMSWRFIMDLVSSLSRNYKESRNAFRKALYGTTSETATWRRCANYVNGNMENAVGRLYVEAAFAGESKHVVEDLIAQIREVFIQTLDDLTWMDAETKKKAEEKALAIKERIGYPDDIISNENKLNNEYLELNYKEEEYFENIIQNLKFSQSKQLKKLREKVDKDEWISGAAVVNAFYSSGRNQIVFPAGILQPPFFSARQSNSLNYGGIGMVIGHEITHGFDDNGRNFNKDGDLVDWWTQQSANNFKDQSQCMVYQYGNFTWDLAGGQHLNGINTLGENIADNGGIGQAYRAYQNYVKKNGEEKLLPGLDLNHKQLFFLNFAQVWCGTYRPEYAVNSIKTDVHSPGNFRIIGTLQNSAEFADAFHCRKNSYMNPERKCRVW
From the text: Enkephalinase is partially purified from rat kidney. The enzyme is extracted from the microvilli fraction by using Triton X-100 according to the method of Malfroy and Schwartz [Biol. Chem. 259, 14365-14370 (1984)] or by using a proteolytic treatment according to the method of Almenoff and Orlowski [Biochem. 22, 590-599 (1983)]. The enzyme is further purified by anion exchange chromatography (Mono Q™ column, Pharmacia) using a Pharmacia FPLC system. The enzyme activity may be measured by the fluorometric methods of Florentin et al. [
Anal. Biochem. 141, 62-69 (1984)] or of Almenoff and Orlowski [Neurochemistry 42, 151-157 (1984)]. The enzyme is assayed in 50 mM HEPES buffer (pH 7.4) in a 3.0 mL reaction volume containing 12 μM of the substrate dansyl-D-AlaGly(p-nitro)PheGly (Km =40μM) at 25° C. The substrate (and inhibitor) is added from a concentrated stock solution in DMSO (up to 0.1 mL DMSO final volume). The enzyme in a small volume (approximately 0.1 μg of FPLC purified protein) is added to initiate the reaction and the rate of fluorecense increase is recorded continuously using a fluorometer (excitation at 339 nm, emission at 562 nm).

Row | Substance | binding affinity, lower end of range ([1]; affinities ranging from about) | binding affinity, upper end of range ([1]; affinities ranging to about) | Km [2]
1 | ANP: family of naturally-occurring peptides which are involved in the homeostatic regulation of blood pressure, as well as sodium and water levels | ≥ 50 pM | ≤ 500 nM | 
2 | dansyl-D-AlaGly(p-nitro)PheGly |  |  | 40 µM
